Experimental data: PubChem BioAssay AID1996
In brackets after ≈: the same amount, converted by molar mass.

conditions: buffer; pH 7.4; 200.0 µM

SMILES | solubility kinetic [µg/mL]
COc1ccc(-c2c3c(=O)n(C)c(=O)n(C)c3cn2-c2ccc(O)cc2)cc1 | 20.4 (≈ 54.1 µM)
Cc1ccc(C(=O)N2CCN(c3ccccn3)CC2)cc1Cl | > 47.4
O=[N+]([O-])c1ccc(O)c(Nc2c([N+](=O)[O-])ccc3nonc23)c1 | > 47.6
Cc1cc(C)c(C#N)c(SCC(=O)Nc2nonc2N)n1 | 15.3 (≈ 50.3 µM)
CCN(c1cccc(C)c1)S(=O)(=O)c1ccc(OC)c([N+](=O)[O-])c1 | < 0.4
O=[N+]([O-])c1ncccc1OCc1ccc(Cl)c(Cl)c1 | 0.4 (≈ 1.34 µM)
O=C(Nc1ccccc1)c1cccc2c(Br)cccc12 | < 0.7
CN1CCCN(C(=O)c2cccc(Cl)c2)CC1 | > 37.9
CC(=O)NCc1ccc(C(=O)O)cc1 | > 29
COc1cc(CNCc2cccc3ccccc23)cc(OC)c1 | 34.1 (≈ 111 µM)
COc1cc(/C=C2\SC(=O)N(CCNC(=O)c3c(C)noc3C)C2=O)cc(OC)c1OC | 4.8 (≈ 10.4 µM)
O=C1C2C3C=CC(CC3)C2C(=O)N1c1ccccc1F (stereo not drawn) | 19.6 (≈ 72.2 µM)
O=C(CNC1CCCCC1)Nc1ccc(Cl)cc1 | 38 (≈ 142 µM)
O=C1CCC(=O)N1CCSC(=S)N1CCOCC1 | > 43.3
CCOC(=O)c1cnc(SCC#N)nc1N | > 35.7
O=C(Cc1ccc(Br)cc1)Nc1ccccc1N1CCCC1 | 2.6 (≈ 7.24 µM)
O=C(CN1C(=O)c2ccccc2C1=O)c1ccc(F)cc1 | 39.5 (≈ 139 µM)
CCc1cccc(C)c1NS(=O)(=O)Cc1ccccc1 | > 43.4
CCOc1cc(C(=O)NC(C)CCc2ccccc2)cc(OCC)c1OCC (stereo not drawn) | 0.8 (≈ 2.08 µM)
CC(=O)Nc1ccc(OS(=O)(=O)c2ccccc2C)cc1 | 35.2 (≈ 115 µM)
Cc1cc(C(=O)OCC(=O)N2CCC(C)CC2)c2ccccc2n1 | > 49
O=C(c1nc(SCc2ccc([N+](=O)[O-])cc2)n2ccccc12)C(F)(F)F | < 0.3
Cc1c(NC(=O)Nc2ccc3c(c2)OCO3)cccc1[N+](=O)[O-] | 0.8 (≈ 2.54 µM)
O=C(Nc1sc2c(c1C(=O)O)CCCC2)c1ccccc1Cl | > 50.4

SMILES | solubility kinetic [µg/mL]
CCc1sc(C(=O)Nc2ccc(OC)c(S(=O)(=O)N3CCOCC3)c2)cc1C | 22.9 (≈ 53.9 µM)
COc1ccc(C(=O)COC(=O)c2ccc(N(C)C)cc2)cc1 | < 0.7
Cc1cccc(-n2c(C)nc3ccsc3c2=O)c1 | 35.8 (≈ 140 µM)
C#CCN1CCN(c2ccc(F)cc2)CC1 | 30 (≈ 137 µM)
Cc1ccc2nc(NCCC(=O)O)nc(-c3ccccc3)c2c1 | > 46.1
Cc1ccccc1C1CCCN(Cc2nc(CC3CC3)no2)C1 (stereo not drawn) | 24.1 (≈ 77.4 µM)
Cc1cccnc1NC(=O)c1ccc(COc2ccccc2)o1 | > 46.3
COC(=O)C(CC(=O)O)NCc1ccco1 (stereo not drawn) | > 34.1
COc1cc(CNc2ccc(N3CCCC3)cc2)cc(Cl)c1OC | 9.7 (≈ 28 µM)
CC(C)c1ccc(S(=O)(=O)NCc2ccc3c(c2)OCO3)cc1 | 1.9 (≈ 5.7 µM)
O=c1[nH]c2ccc(S(=O)(=O)Nc3ccc(Cl)cc3)cc2[nH]1 | 2.2 (≈ 6.8 µM)
O=S(=O)(c1ccc2c(c1)CCN2)N1CCCC1 | 36.1 (≈ 143 µM)
CN(c1ccccc1)S(=O)(=O)c1ccc2c(c1)oc(=O)n2C | 27.1 (≈ 85.1 µM)
Cc1cccc(NCc2cccc3ccccc23)n1 | 9.8 (≈ 39.5 µM)
CCc1ccccc1NCc1cc(=O)oc2cc(C)ccc12 | 0.7 (≈ 2.39 µM)
COc1cc2c(cc1OC)CN(C(=O)c1cc(Cl)nc(Cl)c1)CC2 | 27 (≈ 73.5 µM)
O=C(COC(=O)c1cccc([N+](=O)[O-])c1)Nc1ncc(Br)s1 | 3.5 (≈ 9.06 µM)
CN(Cc1ccccn1)Cc1nc(COc2ccccc2)no1 | 45.7 (≈ 147 µM)
O=C(c1cccc(Cl)c1)N1CCn2c1nc1ccccc12 | 0.9 (≈ 3.02 µM)
Cc1cc(/C(N)=N/OC(=O)Nc2cccc(C(F)(F)F)c2)no1 | 7.2 (≈ 21.9 µM)
CCOc1ccc(N/C=C/C(=O)c2ccc(OC)c(OC)c2)cc1 | 2.2 (≈ 6.72 µM)
OCc1nc2ccccc2n1CCc1ccccc1 | 36.1 (≈ 143 µM)
Cc1nc(-c2noc(-c3cccc(Cl)c3)n2)c(C(F)(F)F)o1 | < 0.2
O=[N+]([O-])c1cnc(Nc2ccccc2)nc1Nc1ccccc1 | 0.2 (≈ 0.651 µM)

SMILES | solubility kinetic [µg/mL]
O=C(Cc1ccccc1)Nc1ccc2c(c1)OC1(CCCC1)O2 | 16.4 (≈ 53 µM)
COc1cc(CN2CCc3c([nH]c4ccccc34)C2)cc(OC)c1 | 26 (≈ 80.6 µM)
CNC(=O)c1c(NC(=O)C2=COCCO2)sc(C)c1C | > 44.5
COc1ccc2c(c1)CCCC21NC(=O)N(CC(=O)N2CC(C)OC(C)C2)C1=O (stereo not drawn) | > 60.2
Nc1ncc(-c2ccccc2)c(-c2ccc(OCc3ccccc3)cc2O)n1 | 0.4 (≈ 1.08 µM)
CN(C(=O)/C=C/c1cnc2ccccc2c1)C1CCCCC1 | > 44.2
CC(=O)N(c1ccc(Cl)cc1)c1nc(C)cc(C)c1C#N | > 45
COc1ccc(NC(=O)CSc2nc3ccc(OC)cc3[nH]2)cc1 | 6 (≈ 17.5 µM)
NC(=O)c1cccnc1 | 2.8 (≈ 22.9 µM)
CCc1ccc(NC(=O)Nc2cnccn2)cc1 | 9.9 (≈ 40.9 µM)
CCc1ccc2c(CN3CCN(S(=O)(=O)c4ccccc4F)CC3)cc(=O)oc2c1 | 3.4 (≈ 7.9 µM)
CCOc1cccc2sc(Cl)nc12 | 3.9 (≈ 18.3 µM)
N#Cc1ccc(C(=O)OCC(=O)N2CCCC2)cc1 | > 38.7
CCC1CN(C(=O)NCc2ccc(F)cc2)c2ccccc2O1 (stereo not drawn) | 37.4 (≈ 119 µM)
COc1ccccc1NS(=O)(=O)c1ccc2[nH]c(=O)[nH]c2c1 | > 47.9
CN(C(=O)CSc1nnc(N)s1)C1CCCCC1 | > 43
Cc1ccsc1C1C(C#N)=C(N)OC2=C1C(=O)CCC2 (stereo not drawn) | 41.9 (≈ 146 µM)
COc1ccc(OC)c(NC(=O)NCCc2cccc(Cl)c2)c1 | 1.9 (≈ 5.67 µM)
Cc1cc(NC(=O)CSc2nc(C)c(C)n2CC(C)C)no1 | > 48.4
Cc1cccc(NC(=S)NCc2ccccc2Cl)c1C | < 0.3
COc1ccccc1NS(=O)(=O)c1ccc(C)c(C(=O)N2CCN(c3ccc(O)cc3)CC2)c1.Cl | > 77.7
CCn1ccnc1CNC(=O)c1ccc2oc(C(C)C)nc2c1 | > 46.9
CCOC(=O)c1nc2ccccc2c(C)c1C.Cl | 25.3
O=C(Nc1cccc(Cl)c1)N1CCc2ccccc2C1 | 1.9 (≈ 6.63 µM)

SMILES | solubility kinetic [µg/mL]
Cc1cccc(C(=O)Nc2ccc3c(c2)C(=O)N(CC(C)C)C3=O)c1 | < 0.4
CCc1ccc(NC(=S)NCc2ccccc2)cc1 | 27.4 (≈ 101 µM)
NS(=O)(=O)c1cccc(NC(=O)CCCC2CCCCC2)c1 | 8.8 (≈ 27.1 µM)
CCOc1ccc(N/C=C/C(=O)c2ccccc2)cc1 | 0.8 (≈ 2.99 µM)
Cc1cc(C)cc(NC(=O)CN2C(=O)C3CC=CCC3C2=O)c1 (stereo not drawn) | > 46.9
O=C(COC(=O)/C=C/c1ccco1)Nc1ccccc1 | 13.5 (≈ 49.8 µM)
Cc1ccc(N2CC(=O)Nc3c(oc4nc(-c5ccccc5)cc(C)c34)C2=O)cc1 | < 0.3
Cc1cc(C)c(S(=O)(=O)c2cccc(Cl)c2)c(=O)[nH]1 | > 44.7
Cn1c(=O)[nH]c2ncn(C)c2c1=O | > 27
CC(C)CNc1nc(N)c([N+](=O)[O-])c(NC2CCCCC2)n1 | < 0.1
CC(C)c1ccc(NC(=O)NCc2cccnc2)cc1 | > 40.4
Cc1cc(C)cc(NC(=O)Nc2ccccc2N2CCCCC2)c1 | 25.5 (≈ 78.8 µM)
COc1cccc(CN(C)C(=O)CCN=C2NS(=O)(=O)c3ccccc32)c1 | > 58.1
Cc1ccc(C(=O)N2CCN(C(=O)c3ccc(C)cc3)C2)cc1 | > 46.3
CC(=O)c1ccc(NC(=O)CN2CCCC2)cc1 | > 36.9
NC(=O)c1ccc[n+]([C@H]2O[C@@H](COP(=O)([O-])OP(=O)(O)OC[C@H]3O[C@@H](n4cnc5c(N)ncnc54)[C@H](O)[C@@H]3O)[C@H](O)[C@@H]2O)c1 | > 99.5
CC(C)NC(=O)c1ccccc1NC(=O)C1CC(=O)N(C(C)C)C1 (stereo not drawn) | > 49.7
COc1cc(SC)ccc1C(=O)N(Cc1ccccc1)c1ccccn1 | > 54.7
Cn1c(=O)c(C(=O)NCc2ccccc2)c(O)c2ccccc21 | < 0.3
CCOc1ccc(-c2nc[nH]c2[N+](=O)[O-])cc1 | 1.7 (≈ 7.29 µM)
CCC(=O)c1c(NC(CC)CO)cc(C)oc1=O (stereo not drawn) | > 38
C/C(=N/NC(=O)CNC(=O)c1cccnc1)c1ccco1 | > 42.9
Cn1cc([N+](=O)[O-])c(C(=O)NCc2ccco2)n1 | > 37.5
COc1nc(Nc2ccccc2)nc(OC)n1 | > 34.8

SMILES | solubility kinetic [µg/mL]
Oc1ccc(Nc2nc(-c3cccnc3)cs2)cc1 | 0.8 (≈ 2.97 µM)
Cn1cnc2c1c(=O)n(Cc1cccc(Cl)c1)c(=O)n2C | > 45.7
CC1CCc2ccccc2N1C(=N)N(C)C.Cl (stereo not drawn) | > 38.1
Cc1cc(OCC(O)CN(C)C(=O)C(C)Oc2ccccc2)ccc1Cl (stereo not drawn) | 45.6 (≈ 121 µM)
Cc1cc(C)c2c(CC(=O)NCCc3ccccc3)coc2c1 | < 0.7
O=S(=O)(Nc1ccncc1)c1ccc(Cl)c(Cl)c1 | 3.7 (≈ 12.2 µM)
CCOC(=O)C1=C(C)NC(=O)CC1c1cc2c(cc1[N+](=O)[O-])OCO2 (stereo not drawn) | 3.3 (≈ 9.47 µM)
CN(C)CCC#CC1(O)c2ccccc2-c2ccccc21 | 32.2 (≈ 116 µM)
Nc1cc(Cl)ccc1C(=O)OCC(=O)NCc1cccs1 | 7.7 (≈ 23.7 µM)
CC(C)CCOc1ccc(C(=O)C[N+]2(C)CCOCC2)cc1.[I-] | 38.4
COc1ccc(NC(=S)Nc2ccc(F)cc2)cc1 | 27.7 (≈ 100 µM)
O=C(NCc1ccccc1F)C12CC3CC(CC(C3)C1)C2 | 1 (≈ 3.48 µM)
Cc1ccc(S(=O)(=O)N[C@H](C(=O)OCC(=O)NC(=O)C2CCCCC2)C(C)C)cc1 | 11.4 (≈ 26 µM)
O=C(NC1CCN(Cc2ccccc2)CC1)c1ccccc1 | > 44.2
CSc1cccc(NC(=O)CC(C)n2ccnc2)c1 (stereo not drawn) | > 41.3
Cc1ccc(NC(=S)N2CCN(c3ccccn3)CC2)cc1C | 1.1 (≈ 3.37 µM)
O=C(NCc1ccc2c(c1)OCO2)Nc1ccc(F)cc1 | 3.1 (≈ 10.8 µM)
Cc1ccccc1-n1c(C)c(C#N)c(=O)c(-[n+]2ccccc2)c1[S-] | 45.5 (≈ 136 µM)
CCc1noc(C)c1C(=O)N1CCN(S(=O)(=O)c2ccc(Cl)s2)CC1 | 55.4 (≈ 137 µM)
CCOc1ccccc1-c1noc(CCC(=O)NC2CCCCC2)n1 | 46.2 (≈ 135 µM)
COc1ccc(C(=O)OCC(=O)NC(=O)NC2CCCC2)c(O)c1 | 4.1 (≈ 12.2 µM)
CC(C)(C)c1ccc(Oc2ccc(N)cn2)cc1 | > 36.3
